Reference: the supplement of paper PMC13386468

Legend:
Assay in all cases: IC50 for competition of protein binding to Kinobeads
Conditions in all cases: assay detail: Kinobeads competition in P. falciparum blood-stage lysate
UniProt Q8I0P6 = target: UniProt Q8I0P6
UniProt Q8IID5 = target: UniProt Q8IID5
UniProt Q8I6U4 = target: UniProt Q8I6U4
UniProt Q8IJN7 = target: UniProt Q8IJN7
UniProt Q8IDV2 = target: UniProt Q8IDV2
UniProt Q8IJA0 = target: UniProt Q8IJA0
UniProt Q6ZMA8 = target: UniProt Q6ZMA8
UniProt Q8ILR7 = target: UniProt Q8ILR7
UniProt Q8I5L6 = target: UniProt Q8I5L6
UniProt Q8IIW2 = target: UniProt Q8IIW2
UniProt Q8ILG6 = target: UniProt Q8ILG6
UniProt Q8I3J0 = target: UniProt Q8I3J0
UniProt C6KSP9 = target: UniProt C6KSP9
UniProt Q9TY96 = target: UniProt Q9TY96
UniProt Q8I5E2 = target: UniProt Q8I5E2
UniProt Q8I5X7 = target: UniProt Q8I5X7
UniProt Q8IL80 = target: UniProt Q8IL80
UniProt Q8IBZ9 = target: UniProt Q8IBZ9
UniProt C0H586 = target: UniProt C0H586
UniProt Q8ILI6 = target: UniProt Q8ILI6
UniProt Q8I3T4 = target: UniProt Q8I3T4
UniProt Q8I468 = target: UniProt Q8I468
UniProt Q8I5F9 = target: UniProt Q8I5F9
UniProt C0H529 = target: UniProt C0H529
UniProt Q8IC33 = target: UniProt Q8IC33
UniProt Q8ID49 = target: UniProt Q8ID49
UniProt Q8IEE9 = target: UniProt Q8IEE9
UniProt Q8IL94 = target: UniProt Q8IL94
UniProt Q8IDB0 = target: UniProt Q8IDB0
UniProt Q8IJI4 = target: UniProt Q8IJI4
UniProt Q8IE81 = target: UniProt Q8IE81
UniProt Q8IEF5 = target: UniProt Q8IEF5
UniProt Q8IC05 = target: UniProt Q8IC05
UniProt Q8IAU0 = target: UniProt Q8IAU0
UniProt P62344 = target: UniProt P62344
UniProt Q8I1T8 = target: UniProt Q8I1T8
UniProt C0H4V4 = target: UniProt C0H4V4
UniProt Q8IIB6 = target: UniProt Q8IIB6
UniProt Q8IM15 = target: UniProt Q8IM15
UniProt Q8IDZ6 = target: UniProt Q8IDZ6
UniProt Q8II22 = target: UniProt Q8II22
UniProt Q8IFM0 = target: UniProt Q8IFM0
UniProt C6KSZ6 = target: UniProt C6KSZ6
Q8ICR0 = Q8ICR0 (UniProt O15865)
UniProt Q8IKK4 = target: UniProt Q8IKK4
UniProt Q8ILB6 = target: UniProt Q8ILB6
UniProt Q8I2J4 = target: UniProt Q8I2J4
UniProt Q8IDB7 = target: UniProt Q8IDB7
UniProt Q8IE20 = target: UniProt Q8IE20
UniProt O77310 = target: UniProt O77310
UniProt Q8IL56 = target: UniProt Q8IL56
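Further: native unpurified kinases from lysate captured on beads bearing immobilized kinase inhibitors, with bead-bound kinases quantified by mass spectrometry across compound doses.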

Chain of UniProt Q8I6U4 (Q8I6U4 whole entry): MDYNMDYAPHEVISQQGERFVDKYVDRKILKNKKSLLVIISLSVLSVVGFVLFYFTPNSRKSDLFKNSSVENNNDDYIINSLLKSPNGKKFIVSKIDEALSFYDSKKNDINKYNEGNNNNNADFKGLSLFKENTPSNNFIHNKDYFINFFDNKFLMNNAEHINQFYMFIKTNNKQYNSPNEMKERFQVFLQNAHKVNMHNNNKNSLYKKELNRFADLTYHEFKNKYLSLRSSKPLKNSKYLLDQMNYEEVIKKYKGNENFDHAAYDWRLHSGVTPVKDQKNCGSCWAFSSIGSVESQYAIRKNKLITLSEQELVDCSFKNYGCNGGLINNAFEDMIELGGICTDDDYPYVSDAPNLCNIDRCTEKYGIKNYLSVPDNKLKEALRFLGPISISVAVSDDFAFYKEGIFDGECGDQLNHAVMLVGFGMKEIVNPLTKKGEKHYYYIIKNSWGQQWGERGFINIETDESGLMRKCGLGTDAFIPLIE
Chain of Q8ICR0 (O15865 whole entry, one chain of several): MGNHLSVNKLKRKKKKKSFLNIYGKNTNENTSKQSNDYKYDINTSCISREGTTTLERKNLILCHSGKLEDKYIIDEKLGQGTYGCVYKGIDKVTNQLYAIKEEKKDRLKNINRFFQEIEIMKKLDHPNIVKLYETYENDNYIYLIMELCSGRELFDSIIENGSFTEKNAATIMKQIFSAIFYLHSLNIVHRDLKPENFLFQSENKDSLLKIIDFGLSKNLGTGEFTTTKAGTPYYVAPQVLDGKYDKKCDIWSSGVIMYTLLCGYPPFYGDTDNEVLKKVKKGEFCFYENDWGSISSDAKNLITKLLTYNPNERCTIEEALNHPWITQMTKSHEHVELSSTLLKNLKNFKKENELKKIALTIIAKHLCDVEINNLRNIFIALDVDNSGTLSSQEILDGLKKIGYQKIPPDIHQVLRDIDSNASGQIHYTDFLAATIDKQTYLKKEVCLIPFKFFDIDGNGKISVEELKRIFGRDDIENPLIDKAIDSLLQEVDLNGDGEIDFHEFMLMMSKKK
Chain of UniProt Q8ILI6 (Q8ILI6 whole entry): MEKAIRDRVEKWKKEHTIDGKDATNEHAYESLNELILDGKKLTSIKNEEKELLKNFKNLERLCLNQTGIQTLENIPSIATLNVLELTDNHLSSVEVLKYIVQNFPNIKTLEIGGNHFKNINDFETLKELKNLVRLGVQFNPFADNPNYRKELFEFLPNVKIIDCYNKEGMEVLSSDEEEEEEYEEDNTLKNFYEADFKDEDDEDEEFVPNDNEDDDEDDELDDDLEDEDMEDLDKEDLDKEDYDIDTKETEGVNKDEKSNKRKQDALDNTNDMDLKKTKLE
Chain of UniProt Q9TY96 (Q9TY96 whole entry): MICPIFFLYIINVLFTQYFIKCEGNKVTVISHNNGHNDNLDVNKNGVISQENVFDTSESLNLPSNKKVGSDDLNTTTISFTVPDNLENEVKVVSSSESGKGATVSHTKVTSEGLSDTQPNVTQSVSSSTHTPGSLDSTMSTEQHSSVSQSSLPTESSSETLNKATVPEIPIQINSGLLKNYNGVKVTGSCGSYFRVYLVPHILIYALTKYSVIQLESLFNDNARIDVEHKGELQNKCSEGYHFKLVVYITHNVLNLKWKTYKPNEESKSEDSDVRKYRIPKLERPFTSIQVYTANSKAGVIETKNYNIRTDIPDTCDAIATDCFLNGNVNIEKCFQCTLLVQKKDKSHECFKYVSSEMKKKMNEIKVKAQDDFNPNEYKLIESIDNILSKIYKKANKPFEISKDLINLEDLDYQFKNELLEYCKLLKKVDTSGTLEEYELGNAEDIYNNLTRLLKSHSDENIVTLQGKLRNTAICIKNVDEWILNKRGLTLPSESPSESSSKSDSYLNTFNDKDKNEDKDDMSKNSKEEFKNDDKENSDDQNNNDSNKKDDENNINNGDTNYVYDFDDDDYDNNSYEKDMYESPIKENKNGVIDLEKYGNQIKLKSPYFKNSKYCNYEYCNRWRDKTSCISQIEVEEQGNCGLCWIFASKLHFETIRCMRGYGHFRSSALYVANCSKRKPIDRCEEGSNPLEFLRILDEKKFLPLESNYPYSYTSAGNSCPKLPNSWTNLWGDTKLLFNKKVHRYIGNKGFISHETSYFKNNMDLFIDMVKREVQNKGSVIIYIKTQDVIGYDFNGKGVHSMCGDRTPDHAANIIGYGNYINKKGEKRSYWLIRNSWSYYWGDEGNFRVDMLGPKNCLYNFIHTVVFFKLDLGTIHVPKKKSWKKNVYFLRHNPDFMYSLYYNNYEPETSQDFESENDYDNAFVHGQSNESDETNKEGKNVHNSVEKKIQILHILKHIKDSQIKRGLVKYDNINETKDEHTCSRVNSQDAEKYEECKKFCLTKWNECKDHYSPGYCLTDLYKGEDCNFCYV
Chain of UniProt Q8I1T8 (Q8I1T8 whole entry): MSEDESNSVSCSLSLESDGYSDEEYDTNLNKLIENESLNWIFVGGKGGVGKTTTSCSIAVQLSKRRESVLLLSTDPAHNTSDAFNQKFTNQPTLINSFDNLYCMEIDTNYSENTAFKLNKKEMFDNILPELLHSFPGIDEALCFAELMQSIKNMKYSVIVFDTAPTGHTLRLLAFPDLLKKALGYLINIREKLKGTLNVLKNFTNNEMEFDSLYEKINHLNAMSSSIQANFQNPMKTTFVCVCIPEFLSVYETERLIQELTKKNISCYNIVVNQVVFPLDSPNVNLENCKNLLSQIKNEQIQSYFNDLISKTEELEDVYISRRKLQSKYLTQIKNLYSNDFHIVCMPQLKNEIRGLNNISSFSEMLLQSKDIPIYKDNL
Chain of UniProt P62344 (P62344 whole entry, looked up): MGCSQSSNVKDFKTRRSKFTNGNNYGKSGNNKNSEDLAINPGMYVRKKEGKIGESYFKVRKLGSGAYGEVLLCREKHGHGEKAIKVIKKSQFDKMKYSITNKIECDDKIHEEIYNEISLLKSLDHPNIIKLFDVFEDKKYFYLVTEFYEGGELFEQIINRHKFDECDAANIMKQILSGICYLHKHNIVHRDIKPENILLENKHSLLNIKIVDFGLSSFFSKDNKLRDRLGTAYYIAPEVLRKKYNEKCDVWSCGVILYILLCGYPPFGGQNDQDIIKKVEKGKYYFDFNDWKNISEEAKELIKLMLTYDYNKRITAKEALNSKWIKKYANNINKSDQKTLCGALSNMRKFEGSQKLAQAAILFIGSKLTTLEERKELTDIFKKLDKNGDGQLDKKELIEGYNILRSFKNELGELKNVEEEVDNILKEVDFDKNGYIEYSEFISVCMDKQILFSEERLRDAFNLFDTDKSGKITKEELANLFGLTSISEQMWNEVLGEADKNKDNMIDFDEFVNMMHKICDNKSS
Chain of UniProt O77310 (O77310 whole entry): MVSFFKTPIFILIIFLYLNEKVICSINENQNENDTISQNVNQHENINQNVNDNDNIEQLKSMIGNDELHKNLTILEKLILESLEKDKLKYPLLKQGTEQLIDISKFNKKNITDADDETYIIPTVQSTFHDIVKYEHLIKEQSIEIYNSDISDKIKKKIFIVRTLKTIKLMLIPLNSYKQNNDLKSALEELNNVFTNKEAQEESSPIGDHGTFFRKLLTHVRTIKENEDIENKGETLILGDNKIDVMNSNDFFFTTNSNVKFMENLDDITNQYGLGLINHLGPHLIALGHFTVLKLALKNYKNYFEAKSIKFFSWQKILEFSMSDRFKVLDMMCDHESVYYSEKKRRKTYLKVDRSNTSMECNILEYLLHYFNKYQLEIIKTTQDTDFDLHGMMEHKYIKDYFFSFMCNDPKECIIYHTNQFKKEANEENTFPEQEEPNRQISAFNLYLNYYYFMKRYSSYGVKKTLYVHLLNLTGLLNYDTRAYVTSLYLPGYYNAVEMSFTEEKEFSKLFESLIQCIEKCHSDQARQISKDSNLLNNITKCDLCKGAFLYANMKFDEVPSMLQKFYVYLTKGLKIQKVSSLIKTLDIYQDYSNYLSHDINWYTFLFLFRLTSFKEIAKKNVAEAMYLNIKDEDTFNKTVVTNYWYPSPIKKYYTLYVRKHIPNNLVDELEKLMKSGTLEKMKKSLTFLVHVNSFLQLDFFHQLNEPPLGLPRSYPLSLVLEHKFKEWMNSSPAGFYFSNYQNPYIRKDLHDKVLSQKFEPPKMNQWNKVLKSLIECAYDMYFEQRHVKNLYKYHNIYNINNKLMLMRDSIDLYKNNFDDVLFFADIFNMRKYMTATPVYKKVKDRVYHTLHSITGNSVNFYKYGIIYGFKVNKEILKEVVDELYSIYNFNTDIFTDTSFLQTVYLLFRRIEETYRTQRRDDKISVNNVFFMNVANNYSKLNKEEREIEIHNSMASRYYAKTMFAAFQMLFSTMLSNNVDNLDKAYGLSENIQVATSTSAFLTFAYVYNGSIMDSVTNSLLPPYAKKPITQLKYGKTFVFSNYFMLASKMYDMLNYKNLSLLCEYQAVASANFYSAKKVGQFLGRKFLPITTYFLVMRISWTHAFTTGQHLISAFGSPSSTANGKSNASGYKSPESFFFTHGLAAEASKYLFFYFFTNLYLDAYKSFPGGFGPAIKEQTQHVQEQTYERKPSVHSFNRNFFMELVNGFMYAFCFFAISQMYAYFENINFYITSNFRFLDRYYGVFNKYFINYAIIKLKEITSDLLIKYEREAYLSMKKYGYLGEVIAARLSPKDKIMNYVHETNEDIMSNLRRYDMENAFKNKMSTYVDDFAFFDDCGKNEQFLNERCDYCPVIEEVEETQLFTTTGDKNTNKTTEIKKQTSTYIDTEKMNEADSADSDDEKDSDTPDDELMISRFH
Chain of UniProt Q8I2J4 (Q8I2J4 whole entry): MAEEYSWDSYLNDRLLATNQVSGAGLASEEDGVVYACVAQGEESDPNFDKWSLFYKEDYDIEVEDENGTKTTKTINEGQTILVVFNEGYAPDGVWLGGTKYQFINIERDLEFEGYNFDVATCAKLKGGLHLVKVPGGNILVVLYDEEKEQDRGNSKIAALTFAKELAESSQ

For O=c1[nH]c2ccc(Cl)cc2c(NC2CN3CCC2CC3)c1-c1nc2ccccc2[nH]1 (stereo unspecified) [CHIR-124], which IC50 (UniProt Q8I0P6) is on record?
Its IC50 is greater than 20 µM.

And the IC50 (UniProt Q8IID5)?
The IC50 was greater than 20 µM.

And the IC50 (UniProt Q8I6U4)?
Its IC50 is greater than 20 µM.

What about the IC50 (UniProt Q8IJN7) of the same compound?
Its IC50 is greater than 20 µM.

What about the IC50 (UniProt Q8IDV2) of the same compound?
Its IC50 is greater than 20 µM.

What about the IC50 (UniProt Q8IJA0) of the same compound?
Its IC50 is greater than 20 µM.

What about the IC50 (UniProt Q6ZMA8) of the same compound?
Its IC50 is greater than 20 µM.

What about the IC50 (UniProt Q8ILR7) of the same compound?
Its IC50 is greater than 20 µM.

And the IC50 (UniProt Q8I5L6)?
Its IC50 is greater than 20 µM.

And the IC50 (UniProt Q8IIW2)?
The IC50 was greater than 20 µM.

And the IC50 (UniProt Q8ILG6)?
Its IC50 is greater than 20 µM.

What about the IC50 (UniProt Q8I3J0) of the same compound?
Its IC50 is greater than 20 µM.

What about the IC50 (UniProt C6KSP9) of the same compound?
The IC50 was greater than 20 µM.

What about the IC50 (UniProt Q9TY96) of the same compound?
Its IC50 is greater than 20 µM.

What about the IC50 (UniProt Q8I5E2) of the same compound?
The IC50 was greater than 20 µM.

What about the IC50 (UniProt Q8I5X7) of the same compound?
The IC50 was greater than 20 µM.

And the IC50 (UniProt Q8IL80)?
The IC50 was greater than 20 µM.

What about the IC50 (UniProt Q8IBZ9) of the same compound?
The IC50 was greater than 20 µM.

And the IC50 (UniProt C0H586)?
Its IC50 is greater than 20 µM.

And the IC50 (UniProt Q8ILI6)?
The IC50 was greater than 20 µM.

And the IC50 (UniProt Q8I3T4)?
Its IC50 is greater than 20 µM.

What about the IC50 (UniProt Q8I468) of the same compound?
Its IC50 is greater than 20 µM.

And the IC50 (UniProt Q8I5F9)?
The IC50 was greater than 20 µM.

What about the IC50 (UniProt C0H529) of the same compound?
Its IC50 is greater than 20 µM.

What about the IC50 (UniProt Q8IC33) of the same compound?
Its IC50 is greater than 20 µM.

What about the IC50 (UniProt Q8ID49) of the same compound?
The IC50 was greater than 20 µM.

And the IC50 (UniProt Q8IEE9)?
The IC50 was greater than 20 µM.

And the IC50 (UniProt Q8IL94)?
Its IC50 is greater than 20 µM.

What about the IC50 (UniProt Q8IDB0) of the same compound?
The IC50 was greater than 20 µM.

What about the IC50 (UniProt Q8IJI4) of the same compound?
Its IC50 is greater than 20 µM.

And the IC50 (UniProt Q8IE81)?
Its IC50 is greater than 20 µM.

And the IC50 (UniProt Q8IEF5)?
The IC50 was greater than 20 µM.

And the IC50 (UniProt Q8IC05)?
Its IC50 is greater than 20 µM.

What about the IC50 (UniProt Q8IAU0) of the same compound?
The IC50 was greater than 20 µM.

And the IC50 (UniProt P62344)?
The IC50 was less than 0.0823 µM.

What about the IC50 (UniProt Q8I1T8) of the same compound?
Its IC50 is greater than 20 µM.

What about the IC50 (UniProt C0H4V4) of the same compound?
The IC50 was greater than 20 µM.

What about the IC50 (UniProt Q8IIB6) of the same compound?
The IC50 was greater than 20 µM.

And the IC50 (UniProt Q8IM15)?
Its IC50 is greater than 20 µM.

What about the IC50 (UniProt Q8IDZ6) of the same compound?
Its IC50 is greater than 20 µM.

And the IC50 (UniProt Q8II22)?
The IC50 was greater than 20 µM.

What about the IC50 (UniProt Q8IFM0) of the same compound?
The IC50 was greater than 20 µM.

What about the IC50 (UniProt C6KSZ6) of the same compound?
The IC50 was 2.22 µM.

What about the IC50 (Q8ICR0) of the same compound?
The IC50 was greater than 20 µM.

What about the IC50 (UniProt Q8IKK4) of the same compound?
The IC50 was greater than 20 µM.

What about the IC50 (UniProt Q8ILB6) of the same compound?
Its IC50 is greater than 20 µM.

What about the IC50 (UniProt Q8I2J4) of the same compound?
The IC50 was greater than 20 µM.

And the IC50 (UniProt Q8IDB7)?
The IC50 was greater than 20 µM.

What about the IC50 (UniProt Q8IE20) of the same compound?
Its IC50 is greater than 20 µM.

And the IC50 (UniProt O77310)?
Its IC50 is greater than 20 µM.

And the IC50 (UniProt Q8IL56)?
Its IC50 is greater than 20 µM.
